The values below come from paper PMC5577653, “Lactoferricin Peptides Increase Macrophages' Capacity To Kill Mycobacterium avium” (mSphere, 2017).

The subject of one data set is M. avium. Conditions: broth culture; cited from earlier work. The text has this: In contrast, we now verify that only D-LFcin17–30 induces a significant decrease in mycobacterial growth inside macrophages. However, all peptides were effective when combined with the antibiotic ethambutol. The combination of antimicrobial peptides with conventional antibiotics is of great potential interest, as it might reduce the dosages of each ...

A further data set in a line: in vitro. Conditions: cell culture medium (supplemented DMEM).
Data set [1] concerns M. avium-infected macrophages. To be noted: M. avium 2447 SmT-infected BMM; 4 to 120 h; data not shown.
For data set [2] the following is noted: 40 µM peptide in supplemented DMEM cell culture medium, 37°C, up to 96 h; RP-HPLC C18, UV 220 nm, peak area relative to time zero.
Protocol: (§1) After 0, 0.5, 2, 4, 8, 24, 48, 72, and 96 h of incubation, a 40-µl aliquot was immediately injected for RP-HPLC analysis using an elution gradient of 0 to 100% acetonitrile in 0.05% aqueous trifluoroacetic acid (TFA) for 30 min at a flow rate of 1 ml/min.
(§2) At the end of 0, 0.5, 2, 4, 8, 24, 48, 72, and 96 h, an aliquot was taken from each mixture and analyzed by high-performance liquid chromatography (HPLC). The HPLC (Hitachi Elite Autosampler L-2200, pump L-2130, diode array detector L-2455, and column oven L-2300) was performed with a 150-mm-diameter C18 reverse-phase column (Merck). Each analysis involved an injection volume of 40 µl and elution with 0 to 100% acetonitrile in 0.05% aqueous trifluoroacetic acid (TFA) at a flow rate of 1 ml/min; the detection wavelength was set to 220 nm. The chromatograms were analyzed with EZChrom Elite software, and the peaks were integrated to extract the area.
The test system of the next data set is M. avium 2447 SmT. The experiment in a line: Intramacrophagic M. avium growth, CFU assay in BALB/c BMM. It counts as cell-based, Mycobacterium avium. Conditions: peptides 40 µM, ethambutol 7.2 µM, each alone, 5 days. As to the method:
Given that the peptides at up to 40 µM were not toxic to macrophages, we evaluated their effect on M. avium growing inside these cells. Bone marrow-derived macrophages were obtained from BALB/c mice and infected with M. avium 2447 smooth transparent variant (SmT). The different peptides were added at 40 µM, and ethambutol was added at 7.2 µM. After 5 days in culture, the number of intracellular bacteria per culture well was quantified in a CFU assay (Fig. 1D).
BMM at day 10 of culture were infected with 10^6 CFU of M. avium 2447 SmT for 4 h at 37°C in a 7% CO2 atmosphere. After incubation, cells were washed several times to remove noninternalized bacteria and reincubated with new medium with or without 40 µM peptide (76.9 µg/ml LFcin17–30 and D-LFcin17–30, 73.6 µg/ml LFcin17–30 all R, 80.3 µg/ml LFcin17–30 all R), alone or in combination with the antibiotic ethambutol (2 µg/ml or 7.2 µM ethambutol dihydrochloride; Sigma-Aldrich, St. Louis, MO, USA). Each condition was tested in triplicate. After 5 days in culture, the intracellular growth of M. avium 2447 SmT was evaluated by determining the number of CFU, as described previously ([75]).

Counter-ions that a name gives are not always drawn. Square brackets hold non-standard residues; d marks the D form. Ends that are not written are not given here. Peptide text beside a SMILES is read from it. Bounds are passed on as bounds.

Protocol for in vitro: as §1, §2

In the case of “FKCKKWQWKMKKLG [LFcin17–30 all K, LFcin17–30 variant with all arginines replaced with lysines]”, in the data set with M. avium, the “activity against M. avium in axenic cultures” value is “all active”. With “FRCRRWQWRMRRLG [LFcin17–30 all R, LFcin17–30 variant with all lysines replaced with arginines]”, the “activity against M. avium in axenic cultures” value in the data set with M. avium is recorded as “all active”. `CSCC[C@@H](NC(=O)[C@@H](CCCNC(=N)N)NC(=O)[C@@H](Cc1c[nH]c2ccccc12)NC(=O)[C@@H](CCC(N)=O)NC(=O)[C@@H](Cc1c[nH]c2ccccc12)NC(=O)[C@@H](CCCNC(=N)N)NC(=O)[C@@H](CCCNC(=N)N)NC(=O)[C@@H](CS)NC(=O)[C@@H](CCCCN)NC(=O)[C@H](N)Cc1ccccc1)C(=O)N[C@H](CCCCN)C(=O)N[C@H](CCCCN)C(=O)N[C@H](CC(C)C)C(=O)NCC(=O)O` [D-LFcin17–30] (H-[dF][dK][dC][dR][dR][dW][dQ][dW][dR][dM][dK][dK][dL]G-OH) yielded a metabolised at 96 h, 40 µM in “in vitro” of at most 30%. The “levels of apoptosis or necrosis” value in data set [1] is listed as “no significant changes”. In the case of FKCRRWQWRMKKLG [LFcin17–30], the “degradation of peptide after 96 h of incubation” value in data set [2] was “completely degraded”. The metabolised at 24 h, 40 µM in the data set “in vitro” is 50%. Further, in data set [1], the “levels of apoptosis or necrosis” value is “no significant changes”. Consider `CC[C@@H](CO)NCCN[C@@H](CC)CO` [ethambutol, ethambutol dihydrochloride], for which, in the data set with M. avium 2447 SmT, the “inhibition of intramacrophagic M. avium growth, compound alone” value was “None of the other peptides or ethambutol alone significantly inhibited M. avium growth”.
